The target in assay [1] is NLuc::LmxCLK1 (Leishmania mexicana, UniProt E9AMP2). In words: cell-based. Format: cell-based. The following applies: for Target occupancy Run 1 / Target occupancy Run 2 / Target occupancy Average: 10 µM compound, tracer SV366, promastigotes; for Target occupancy Average: mean of two experiments. The procedure:
All compounds were tested at a fixed concentration of 10 µM to enable direct comparison of their target occupancy in live cells.
Serially diluted probes (5 µL) were added to 85 µL of cells in culture media or 85 µL of purified protein. Final well volumes were adjusted to 100 µL with sterile Opti-MEM™ I Reduced Serum Medium (Thermo-Scientific) – for wells containing cells; or Kinase Buffer - for wells containing purified protein. For tracer displacement assays, samples were prepared as above, but final volume was brought to 100 µL by addition of vehicle or serially-diluted test compounds. Final DMSO concentration in these assays was 1%. […] Light emissions at 460+10 nm (BRET donor) and at 610+20 nm (BRET acceptor) were sequentially recorded (integration time = 0.5 s, gain = 3600) using a luminometer (BMG LABTECH Clariostar or Biotek Synergy HT). BRET values are reported in milli-BRET (mBRET) units (mBU), obtained by dividing the acceptor luminescence by the donor luminescence and multiplying the result by a factor of 1,000. BRET values were converted to blank-corrected probe occupancies (%) according to equation [1]: (1) Probeoccupancy(%)=X−Z/Y−Z×100 where X = mBRET value in the presence of the test compound and the probe, Y = mBRET value in the presence of probe only, and Z = mBRET value in the absence of probe and test compound. […]

For assay [2], the target named is T1, LmxCLK1 (Leishmania mexicana, UniProt E9AMP2).
T1 sequence (E9AMP2 1-422): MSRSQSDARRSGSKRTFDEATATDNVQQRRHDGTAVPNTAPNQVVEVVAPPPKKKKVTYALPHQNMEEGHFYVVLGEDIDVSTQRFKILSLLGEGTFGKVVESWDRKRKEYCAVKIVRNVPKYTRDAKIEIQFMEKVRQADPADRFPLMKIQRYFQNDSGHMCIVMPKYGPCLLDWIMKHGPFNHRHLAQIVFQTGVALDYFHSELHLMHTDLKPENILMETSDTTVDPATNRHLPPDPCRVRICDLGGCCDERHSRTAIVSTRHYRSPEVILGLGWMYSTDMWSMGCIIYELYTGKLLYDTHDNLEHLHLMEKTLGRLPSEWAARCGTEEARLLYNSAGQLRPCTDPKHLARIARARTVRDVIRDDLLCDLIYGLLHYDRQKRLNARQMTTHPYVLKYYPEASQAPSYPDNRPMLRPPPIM
In words: biochemical. Format: binding.

Where [3] appears, read: DSF, 10 µM compound, 2 µM LmxCLK1, Run 1.
The mark [4] stands for this setting: DSF, 10 µM compound, 2 µM LmxCLK1, Run 2.
[5] abbreviates: DSF, 10 µM compound, 2 µM LmxCLK1, mean of two runs.
Setting [6] is: read-out: Target occupancy Average.
The mark [7] stands for this setting: read-out: Target occupancy Run 1.
Where [8] appears, read: read-out: Target occupancy Run 2.
[9] abbreviates: DSF, 10 µM compound, 2 µM LmxCLK1, Run 1, read-out: ΔTm Run 1.
The mark [10] stands for this setting: DSF, 10 µM compound, 2 µM LmxCLK1, Run 2, read-out: ΔTm Run 2.
The mark [11] stands for this setting: DSF, 10 µM compound, 2 µM LmxCLK1, mean of two runs, read-out: ΔTm Average.

Like-named read-outs stand apart in the source and are kept apart here.

The record followed here is publication PMC7619385 (ACS infectious diseases, 2025).

With `COc1cc(N2CCC(N)CC2)ccc1Nc1ncc(Cl)c(-c2c[nH]c3ccccc23)n1` [AZD3463], in assay [1], the “Target occupancy Run 1” value came to 8.0%, the “Target occupancy Run 2” value was -12.9% and the “Target occupancy Average” value is recorded as -2.4%. Moreover, the “ΔTm Run 1” value in assay [2] (setting [3]) stood at 0.6 °C. In addition, in assay [2] (setting [4]), the “ΔTm Run 2” value was found to be 0.3 °C. In assay [2] (setting [5]), the “ΔTm Average” value was 0.4 °C.

Consider `C#Cc1cccc(Nc2ncnc3cc(OCCOC)c(OCCOC)cc23)c1.Cl` [Erlotinib HCl (OSI-744)], for which, in assay [1], the “Target occupancy Run 1” value is reported as -0.1%, the “Target occupancy Run 2” value is reported as -7.3% and the “Target occupancy Average” value is on record as -3.7%. Moreover, the “ΔTm Run 1” value in assay [2] (setting [3]) was found to be 0.1 °C. In addition, the “ΔTm Run 2” value in assay [2] (setting [4]) was determined as 0.1 °C. The “ΔTm Average” value in assay [2] (setting [5]) stood at 0.1 °C.

With `N[C@@H]1CCCN(c2c(/C=C3\SC(=O)NC3=O)cccc2-c2ccccc2)C1` [AZD1208], in assay [1], the “Target occupancy Run 1” value came to 5.0%, the “Target occupancy Run 2” value was -7.9% and the “Target occupancy Average” value is -1.4%. Also, the “ΔTm Run 1” value in assay [2] (setting [3]) was determined as 0.1 °C. The “ΔTm Run 2” value in assay [2] (setting [4]) was -0.4 °C. For the same molecule, the “ΔTm Average” value in assay [2] (setting [5]) was -0.1 °C.

Regarding `Cc1c(Cn2c(C)nc3c(C(=O)O)cc(N4CCOCC4)cc32)cccc1C(F)(F)F` [GSK2636771], the receptor occupancy at 10 µM in assay [1] (setting [6]) was -2.2%; in assay [1] (setting [7]), 2.9%; in assay [1] (setting [8]), -7.3%. Besides, the values for the ΔTm at 10 µM in assay [2] (setting [9]), in assay [2] (setting [10]) and in assay [2] (setting [11]) were 0.2 °C, 0.1 °C and 0.1 °C, respectively.

In the case of `CC(C)n1nc(-c2ccc3oc(N)nc3c2)c2c(N)ncnc21` [INK 128 (MLN0128)], in assay [1], the “Target occupancy Run 1” value is recorded as -0.8%, the “Target occupancy Run 2” value is listed as 0.1% and the “Target occupancy Average” value is on record as -0.3%. Besides, the “ΔTm Run 1” value in assay [2] (setting [3]) worked out at 0.6 °C. In addition, the “ΔTm Run 2” value in assay [2] (setting [4]) is 0.5 °C. Also, the “ΔTm Average” value in assay [2] (setting [5]) was 0.5 °C.

In the case of `COC(=O)c1ccc2c(c1)NC(=O)/C2=C(\Nc1ccc(N(C)C(=O)CN2CCN(C)CC2)cc1)c1ccccc1` [Nintedanib (BIBF 1120)], in assay [1], the “Target occupancy Run 1” value is -1.8%, the “Target occupancy Run 2” value was -11.3% and the “Target occupancy Average” value is on record as -6.6%. In addition, in assay [2] (setting [3]), the “ΔTm Run 1” value amounted to 0.3 °C. For the same molecule, the “ΔTm Run 2” value in assay [2] (setting [4]) is 0.2 °C. For the same molecule, the “ΔTm Average” value in assay [2] (setting [5]) was 0.2 °C.

On to `O=C1c2ccc(Nc3ccc(F)cc3F)cc2CCc2ccc(OC[C@H](O)CO)cc21` [Skepinone-L], for which the receptor occupancy at 10 µM was -1.4% in assay [1] (setting [6]), 6.5% in assay [1] (setting [7]) and -9.2% in assay [1] (setting [8]). Moreover, the ΔTm at 10 µM in assay [2] (setting [9]) stood at 0 °C; in assay [2] (setting [10]), 0.1 °C; in assay [2] (setting [11]) it was 0.1 °C.

For the molecule `CCNc1nc(Nc2cc(F)c(C(=O)N3CCOCC3)cc2OC)ncc1C(F)(F)F` [GNE-7915], the receptor occupancy at 10 µM in assay [1] (setting [6]) is -3.7%; in assay [1] (setting [7]), -10.5%; in assay [1] (setting [8]), 3.1%. Moreover, the ΔTm at 10 µM in assay [2] (setting [9]) was -0.1 °C; in assay [2] (setting [10]), -0.5 °C; in assay [2] (setting [11]), -0.3 °C.

In the case of `O=C(O)[C@]1(Cc2cccc(Nc3nccs3)n2)CC[C@@H](Oc2cccc(Cl)c2F)CC1` [MK-5108 (VX-689)], in assay [1], the “Target occupancy Run 1” value is -2.8%, the “Target occupancy Run 2” value worked out at 1.0% and the “Target occupancy Average” value is listed as -0.9%. The “ΔTm Run 1” value in assay [2] (setting [3]) is -0.1 °C. Further, the “ΔTm Run 2” value in assay [2] (setting [4]) is -0.2 °C. Moreover, the “ΔTm Average” value in assay [2] (setting [5]) is -0.1 °C.

As for `N#Cc1c(O)c2c(-c3ccc(-c4ccccc4O)cc3)csc2[nH]c1=O` [A-769662], in assay [1], the “Target occupancy Run 1” value amounted to 1.2%, the “Target occupancy Run 2” value is -1.3% and the “Target occupancy Average” value is on record as 0.0%. Also, in assay [2], the “ΔTm Average” value is given as -0.1, the “ΔTm Run 1” value is given as -0.1 and the ΔTm Run 2 was found to be 0 °C.

The ΔTm is the shift of the melting midpoint relative to a reference.
